Test results taken from ChEMBL document CHEMBL1201862, “PubChem BioAssay data set” (2004).
Calls of active or inactive are those of the source.

Tests used:
[1] = biological target: Luciferin 4-monooxygenase (Photinus pyralis, UniProt P08659); assay: inhibition of purified Photinus pyralis luciferase – biochemical, luminescence, dose response (AID 1891)
[2] = biological target: Cyclin-dependent kinase 5/CDK5 activator 1 (Homo sapiens, UniProt Q00535); assay: blockade of human CDK5 activity – biochemical, cherry-picked samples, set 2, dose response (AID 504545)
[3] = biological target: Paired box protein Pax-8 (Homo sapiens, UniProt Q06710); assay: PAX8 transcriptional activity inhibition in RMG-I – RMG-I cells, luciferase, cherry-pick, dose response (AID 687027); type: functional, cell-based;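 note: luciferase reporter driven by Pax8 target thyroperoxidase promoter measured by SteadyGlo luminescence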
[4] = biological target: T1, Neuropeptide Y receptor type 1 (Homo sapiens, UniProt P25929); type: functional;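 note: HEK293 cells with a CNG channel challenged with NPY then isoproterenol; potency as antagonist that reverses NPY suppression of cAMP signal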
T1 sequence (P25929 whole entry): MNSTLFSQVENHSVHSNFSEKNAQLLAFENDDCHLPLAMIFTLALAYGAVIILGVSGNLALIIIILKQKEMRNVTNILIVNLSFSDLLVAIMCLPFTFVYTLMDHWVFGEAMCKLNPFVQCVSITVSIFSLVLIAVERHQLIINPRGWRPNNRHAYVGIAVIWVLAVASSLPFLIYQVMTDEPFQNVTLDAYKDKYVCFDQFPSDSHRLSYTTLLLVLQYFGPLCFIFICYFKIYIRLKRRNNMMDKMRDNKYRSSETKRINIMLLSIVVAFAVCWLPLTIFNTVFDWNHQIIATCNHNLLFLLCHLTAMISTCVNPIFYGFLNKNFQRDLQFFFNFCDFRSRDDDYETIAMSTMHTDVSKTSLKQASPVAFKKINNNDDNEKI

[5] = biological target: T2, Neuropeptide Y receptor type 2 (Homo sapiens, UniProt P49146); type: functional, cell-based;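 note: HEK293 cells expressing the receptor and a CNG channel; stimulus was NPY near EC95 followed by isoproterenol to raise cAMP; antagonist potency measured as restoring cAMP signal that NPY suppresses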
T2 sequence (P49146 whole entry): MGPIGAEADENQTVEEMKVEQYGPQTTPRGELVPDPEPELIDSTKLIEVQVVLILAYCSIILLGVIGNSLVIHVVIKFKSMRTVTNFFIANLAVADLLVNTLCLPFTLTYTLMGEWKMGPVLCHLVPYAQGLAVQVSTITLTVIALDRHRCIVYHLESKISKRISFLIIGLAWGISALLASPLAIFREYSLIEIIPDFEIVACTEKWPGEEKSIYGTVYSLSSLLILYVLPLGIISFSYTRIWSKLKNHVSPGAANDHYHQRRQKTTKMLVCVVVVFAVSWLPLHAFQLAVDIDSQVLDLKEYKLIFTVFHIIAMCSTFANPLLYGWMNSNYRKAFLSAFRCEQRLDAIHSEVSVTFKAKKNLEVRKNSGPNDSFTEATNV

[6] = biological target: SWI/SNF-related matrix-associated actin-dependent regulator of chromatin subfamily A member 2 (Homo sapiens, UniProt P51531); assay: Luminescence-based cell-based high throughput dose response assay to identify activators of the function of SWI/SNF related, matrix associated, actin dependent regulator of chromatin, subfamily a, member 2 (SMARCA2, BRM).; type: functional
[7] = Counterscreen for activators of the function of SWI/SNF related, matrix associated, actin dependent regulator of chromatin, subfamily a, member 2 (SMARCA2, BRM): Luminescence-based cell-based high throughput dose response assay to identify non-selective compounds using the VP16 reporter assay.; type: functional
[8] = biological target: Peroxisome proliferator-activated receptor gamma/Nuclear receptor corepressor 2 (Homo sapiens, UniProt P37231+Q9Y618); assay: Counterscreen for NR2E3 inverse agonists: TR-FRET-based biochemical high throughput dose response assay to identify inverse agonists of the interaction between peroxisome proliferator-activated receptor gamma (PPARg) and nuclear receptor co-repressor 2 (NCOR2).; type: functional
[9] = biological target: Photoreceptor-specific nuclear receptor (Homo sapiens, UniProt Q9Y5X4); assay: ligands suppressing NR2E3 nuclear receptor activity – biochemical, TR-FRET, dose response (AID 463256); type: functional
[10] = luciferase reporter signal suppression in cells – H4 neuroglioma cells, luminescence, dose response (AID 1990); type: functional, cell-based
[11] = Luminescence Cell-Based Dose Response HTS to Identify Inhibitors of 5'UTR Stem-Loop Driven Prion Protein mRNA Translation in H4 Neuroglioblastoma Cells. [Related pubchem assays: 1827 (Project Summary), 1813 (Primary HTS)]; type: functional
[12] = alpha-synuclein stem-loop luciferase translation blockers – H4 neuroglioma cells, luminescence, confirmation (AID 1988); type: functional, cell-based
[13] = biological target: T3, Replicative DNA helicase DnaB (Mycobacterium tuberculosis, UniProt P9WMR3); assay: DnaB intein splicing inhibitors, dose response, biochemical, cell-free fluorescence (AID 449749); type: functional
T3 sequence (P9WMR3 whole entry): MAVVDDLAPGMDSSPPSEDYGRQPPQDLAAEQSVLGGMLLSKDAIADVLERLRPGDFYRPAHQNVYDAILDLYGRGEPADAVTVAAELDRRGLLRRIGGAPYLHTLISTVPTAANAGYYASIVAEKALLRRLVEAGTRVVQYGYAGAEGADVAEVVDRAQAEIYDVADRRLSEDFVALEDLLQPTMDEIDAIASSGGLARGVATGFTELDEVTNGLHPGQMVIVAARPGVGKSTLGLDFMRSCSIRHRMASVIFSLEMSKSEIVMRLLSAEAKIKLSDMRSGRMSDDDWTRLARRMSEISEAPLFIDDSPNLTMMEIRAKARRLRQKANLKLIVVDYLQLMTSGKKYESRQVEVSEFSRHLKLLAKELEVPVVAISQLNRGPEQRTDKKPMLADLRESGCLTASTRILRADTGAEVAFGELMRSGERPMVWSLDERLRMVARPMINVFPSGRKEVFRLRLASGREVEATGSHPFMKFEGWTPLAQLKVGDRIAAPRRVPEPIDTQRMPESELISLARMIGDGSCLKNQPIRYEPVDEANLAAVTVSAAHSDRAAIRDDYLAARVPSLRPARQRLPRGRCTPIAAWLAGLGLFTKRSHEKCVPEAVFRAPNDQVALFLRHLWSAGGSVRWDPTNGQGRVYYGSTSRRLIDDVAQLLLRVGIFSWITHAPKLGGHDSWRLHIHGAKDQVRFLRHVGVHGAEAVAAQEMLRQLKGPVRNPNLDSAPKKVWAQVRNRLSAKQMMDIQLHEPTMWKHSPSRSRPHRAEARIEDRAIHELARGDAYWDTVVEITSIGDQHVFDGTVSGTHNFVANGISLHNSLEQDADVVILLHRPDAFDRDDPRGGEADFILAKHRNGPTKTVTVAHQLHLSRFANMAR

[14] = biological target: T4, Protein RecA (Mycobacterium tuberculosis, UniProt P9WHJ3); assay: Fluorescence Cell-Free Homogeneous Dose Retest to Identify Inhibitors of RecA-Intein Splicing Activity. [Related pubchem assays (depositor defined):AID2097, AID2223, AID489010, AID492950]; type: functional
T4 sequence (P9WHJ3 whole entry): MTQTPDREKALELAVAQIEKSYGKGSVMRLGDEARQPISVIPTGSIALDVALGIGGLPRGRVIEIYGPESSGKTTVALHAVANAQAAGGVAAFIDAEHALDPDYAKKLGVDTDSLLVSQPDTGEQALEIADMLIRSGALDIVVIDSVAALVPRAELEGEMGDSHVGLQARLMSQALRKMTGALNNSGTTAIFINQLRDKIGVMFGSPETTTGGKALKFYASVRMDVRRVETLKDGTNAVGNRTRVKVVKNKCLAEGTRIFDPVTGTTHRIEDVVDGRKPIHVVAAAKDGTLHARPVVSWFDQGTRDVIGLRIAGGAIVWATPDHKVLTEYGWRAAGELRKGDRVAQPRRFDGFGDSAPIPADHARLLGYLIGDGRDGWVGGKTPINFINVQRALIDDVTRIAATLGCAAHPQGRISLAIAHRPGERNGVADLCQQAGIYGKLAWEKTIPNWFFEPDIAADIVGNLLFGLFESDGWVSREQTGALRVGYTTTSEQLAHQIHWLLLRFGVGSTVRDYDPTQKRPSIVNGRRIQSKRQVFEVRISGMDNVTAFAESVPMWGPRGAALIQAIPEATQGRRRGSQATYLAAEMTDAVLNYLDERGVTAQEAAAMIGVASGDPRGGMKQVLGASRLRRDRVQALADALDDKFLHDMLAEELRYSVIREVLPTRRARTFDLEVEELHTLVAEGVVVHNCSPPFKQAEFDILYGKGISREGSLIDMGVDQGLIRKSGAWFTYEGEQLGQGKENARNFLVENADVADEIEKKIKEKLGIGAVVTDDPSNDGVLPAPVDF

[15] = biological target: T5, CAAX prenyl protease 2 (Saccharomyces cerevisiae S288c, UniProt Q03530); type: biochemical
T5 sequence (Q03530 whole entry): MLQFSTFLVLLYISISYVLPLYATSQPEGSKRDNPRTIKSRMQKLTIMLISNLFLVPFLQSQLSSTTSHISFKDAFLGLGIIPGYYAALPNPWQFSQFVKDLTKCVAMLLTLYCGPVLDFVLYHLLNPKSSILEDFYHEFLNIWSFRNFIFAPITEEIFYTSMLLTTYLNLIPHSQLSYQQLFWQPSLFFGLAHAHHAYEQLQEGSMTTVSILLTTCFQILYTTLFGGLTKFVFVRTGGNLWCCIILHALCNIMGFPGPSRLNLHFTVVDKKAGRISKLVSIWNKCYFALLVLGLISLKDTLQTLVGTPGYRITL

[16] = OVCAR-3 cell viability loss – plate reader, dry powder samples, PAX8 inhibitor project, dose response (AID 743044); type: functional, cell-based
[17] = OVCAR8 cell viability loss – plate reader, dry powder samples, PAX8 project, dose response (AID 743197); type: functional, cell-based; details: OVCAR-8
[18] = growth inhibition of yeast DHODH-expressing 3D7 parasites – SYBR Green, dry powder samples, dose response (AID 1159570); type: functional, cell-based;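 note: parasite growth measured after 72 hours of compound exposure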
[19] = toxicity to human HepG2 hepatoma cells – cell-based, plate reader, dry powder samples, cytotoxicity control, dose response (AID 1159569); type: functional;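 note: inhibitor potency with signal falling toward the positive control level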
[20] = P. falciparum Dd2 growth inhibitors, dose response, SYBR Green, cherry-picked samples (AID 1159567); type: functional, cell-based
[21] = Dd2 malaria parasite growth inhibition potency – SYBR Green, dry powder samples, dose response (AID 1159566); type: functional, cell-based;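 note: potency for growth inhibition with lower SYBR green DNA signal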
[22] = growth inhibition of PfATP4-mutant resistant parasites – NITD609-resistant line, SYBR Green, dry powder, dose response (AID 1159571); type: functional, cell-based;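 note: parasites synchronized at ring stage by sorbitol before testing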

Photoreceptor-specific nuclear receptor, sequence (Q9Y5X4 whole entry): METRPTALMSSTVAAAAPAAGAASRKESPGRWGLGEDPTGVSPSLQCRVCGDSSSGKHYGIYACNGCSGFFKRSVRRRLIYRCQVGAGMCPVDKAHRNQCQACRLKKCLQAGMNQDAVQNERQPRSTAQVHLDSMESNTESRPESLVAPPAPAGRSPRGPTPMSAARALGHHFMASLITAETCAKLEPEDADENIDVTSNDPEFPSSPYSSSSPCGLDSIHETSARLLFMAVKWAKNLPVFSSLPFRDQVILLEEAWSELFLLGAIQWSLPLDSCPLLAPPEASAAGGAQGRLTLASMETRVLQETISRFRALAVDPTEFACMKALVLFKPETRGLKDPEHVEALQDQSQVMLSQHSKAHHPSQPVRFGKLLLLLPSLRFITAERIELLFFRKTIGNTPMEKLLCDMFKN
Peroxisome proliferator-activated receptor gamma/Nuclear receptor corepressor 2, sequence (P37231 whole entry): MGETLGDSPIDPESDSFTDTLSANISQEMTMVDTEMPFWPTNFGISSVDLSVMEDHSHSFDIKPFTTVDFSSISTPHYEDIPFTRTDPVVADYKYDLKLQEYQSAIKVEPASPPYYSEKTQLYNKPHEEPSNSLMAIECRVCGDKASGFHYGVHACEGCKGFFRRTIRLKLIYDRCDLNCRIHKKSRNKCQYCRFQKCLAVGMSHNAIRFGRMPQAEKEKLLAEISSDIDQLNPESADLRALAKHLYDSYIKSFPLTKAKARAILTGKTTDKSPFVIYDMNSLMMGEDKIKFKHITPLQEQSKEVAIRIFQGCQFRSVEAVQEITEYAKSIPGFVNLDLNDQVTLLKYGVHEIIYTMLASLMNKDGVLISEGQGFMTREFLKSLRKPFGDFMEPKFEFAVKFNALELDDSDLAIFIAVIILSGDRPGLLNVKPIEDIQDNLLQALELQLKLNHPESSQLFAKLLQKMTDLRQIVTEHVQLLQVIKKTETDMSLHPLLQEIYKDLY
Peroxisome proliferator-activated receptor gamma/Nuclear receptor corepressor 2, sequence (Q9Y618 whole entry): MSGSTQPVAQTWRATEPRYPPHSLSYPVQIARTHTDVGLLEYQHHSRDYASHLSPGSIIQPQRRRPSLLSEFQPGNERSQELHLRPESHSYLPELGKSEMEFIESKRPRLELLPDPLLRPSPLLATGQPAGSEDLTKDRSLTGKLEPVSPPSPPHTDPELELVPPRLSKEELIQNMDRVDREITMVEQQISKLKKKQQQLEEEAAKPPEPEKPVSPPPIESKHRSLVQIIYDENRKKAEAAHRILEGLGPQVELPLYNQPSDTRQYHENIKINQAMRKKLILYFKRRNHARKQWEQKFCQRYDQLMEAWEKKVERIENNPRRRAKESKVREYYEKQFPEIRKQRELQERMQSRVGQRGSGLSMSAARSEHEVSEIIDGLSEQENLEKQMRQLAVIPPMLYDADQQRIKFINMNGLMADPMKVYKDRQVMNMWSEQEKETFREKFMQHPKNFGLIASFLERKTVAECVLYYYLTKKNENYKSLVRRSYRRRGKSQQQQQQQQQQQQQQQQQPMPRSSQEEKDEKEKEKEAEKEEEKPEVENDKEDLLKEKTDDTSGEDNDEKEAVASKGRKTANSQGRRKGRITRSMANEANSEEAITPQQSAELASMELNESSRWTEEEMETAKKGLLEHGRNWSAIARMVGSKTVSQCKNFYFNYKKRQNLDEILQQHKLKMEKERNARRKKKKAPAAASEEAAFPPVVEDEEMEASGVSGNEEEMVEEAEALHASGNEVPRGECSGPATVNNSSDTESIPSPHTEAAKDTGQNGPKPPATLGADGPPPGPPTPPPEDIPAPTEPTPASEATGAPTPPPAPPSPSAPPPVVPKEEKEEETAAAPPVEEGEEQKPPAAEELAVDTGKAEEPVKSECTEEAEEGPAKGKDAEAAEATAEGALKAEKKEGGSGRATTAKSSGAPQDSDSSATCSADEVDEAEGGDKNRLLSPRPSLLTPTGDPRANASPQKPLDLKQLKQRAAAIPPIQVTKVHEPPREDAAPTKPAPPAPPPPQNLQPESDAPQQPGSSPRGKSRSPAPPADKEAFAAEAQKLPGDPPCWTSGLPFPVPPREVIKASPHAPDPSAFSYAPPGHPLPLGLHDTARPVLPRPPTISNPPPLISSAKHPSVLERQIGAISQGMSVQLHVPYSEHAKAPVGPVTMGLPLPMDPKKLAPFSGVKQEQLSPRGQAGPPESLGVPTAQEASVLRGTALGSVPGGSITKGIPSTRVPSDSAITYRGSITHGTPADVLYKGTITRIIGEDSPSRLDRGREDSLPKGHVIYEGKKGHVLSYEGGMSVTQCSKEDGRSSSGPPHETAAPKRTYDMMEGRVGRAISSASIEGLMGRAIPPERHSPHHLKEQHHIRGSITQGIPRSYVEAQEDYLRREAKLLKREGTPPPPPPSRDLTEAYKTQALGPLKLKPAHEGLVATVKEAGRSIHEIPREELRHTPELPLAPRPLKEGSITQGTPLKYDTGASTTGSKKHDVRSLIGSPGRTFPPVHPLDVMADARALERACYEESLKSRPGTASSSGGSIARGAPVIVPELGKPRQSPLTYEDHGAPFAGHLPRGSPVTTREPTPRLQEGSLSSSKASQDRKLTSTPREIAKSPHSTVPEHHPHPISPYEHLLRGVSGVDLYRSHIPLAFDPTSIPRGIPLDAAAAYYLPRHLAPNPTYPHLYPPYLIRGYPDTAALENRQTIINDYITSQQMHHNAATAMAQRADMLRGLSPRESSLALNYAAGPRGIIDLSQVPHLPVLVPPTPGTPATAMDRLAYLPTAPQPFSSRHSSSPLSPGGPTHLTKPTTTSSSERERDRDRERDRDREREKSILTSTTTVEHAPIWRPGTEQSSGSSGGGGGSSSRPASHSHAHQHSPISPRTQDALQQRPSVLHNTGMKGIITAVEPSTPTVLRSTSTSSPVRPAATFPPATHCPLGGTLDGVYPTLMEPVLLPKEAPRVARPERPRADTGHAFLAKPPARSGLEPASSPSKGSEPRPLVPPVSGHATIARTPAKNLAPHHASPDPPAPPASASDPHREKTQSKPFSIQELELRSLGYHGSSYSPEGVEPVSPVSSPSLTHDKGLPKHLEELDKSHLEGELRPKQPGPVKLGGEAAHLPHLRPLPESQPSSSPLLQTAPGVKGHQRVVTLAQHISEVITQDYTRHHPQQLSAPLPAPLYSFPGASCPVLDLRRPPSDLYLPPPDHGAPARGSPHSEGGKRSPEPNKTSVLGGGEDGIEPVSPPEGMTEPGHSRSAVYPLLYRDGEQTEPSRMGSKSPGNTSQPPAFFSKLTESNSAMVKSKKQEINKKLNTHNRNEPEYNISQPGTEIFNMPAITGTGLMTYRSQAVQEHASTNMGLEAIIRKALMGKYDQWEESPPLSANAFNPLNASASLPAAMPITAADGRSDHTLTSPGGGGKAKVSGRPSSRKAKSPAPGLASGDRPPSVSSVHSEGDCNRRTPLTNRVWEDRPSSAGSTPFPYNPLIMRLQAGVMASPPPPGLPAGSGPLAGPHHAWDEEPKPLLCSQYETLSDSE
Cyclin-dependent kinase 5/CDK5 activator 1, sequence (Q00535 whole entry): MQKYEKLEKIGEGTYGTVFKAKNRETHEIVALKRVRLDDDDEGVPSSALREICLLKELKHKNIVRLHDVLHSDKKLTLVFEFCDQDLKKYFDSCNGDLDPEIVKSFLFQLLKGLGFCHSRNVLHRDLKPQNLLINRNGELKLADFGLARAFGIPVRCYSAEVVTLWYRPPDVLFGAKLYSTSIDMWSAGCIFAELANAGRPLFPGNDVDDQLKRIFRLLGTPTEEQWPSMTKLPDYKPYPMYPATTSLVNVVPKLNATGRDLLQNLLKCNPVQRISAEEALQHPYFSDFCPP
Cyclin-dependent kinase 5/CDK5 activator 1, sequence (Q15078 whole entry, further chain): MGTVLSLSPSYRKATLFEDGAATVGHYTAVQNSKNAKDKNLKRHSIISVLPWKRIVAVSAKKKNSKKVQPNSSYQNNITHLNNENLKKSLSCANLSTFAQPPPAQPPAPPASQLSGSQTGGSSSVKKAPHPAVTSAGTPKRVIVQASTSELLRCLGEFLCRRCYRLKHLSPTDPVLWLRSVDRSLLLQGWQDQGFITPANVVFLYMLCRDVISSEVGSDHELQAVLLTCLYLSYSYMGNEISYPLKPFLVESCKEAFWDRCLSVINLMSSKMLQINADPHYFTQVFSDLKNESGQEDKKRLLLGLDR
Paired box protein Pax-8, sequence (Q06710 whole entry): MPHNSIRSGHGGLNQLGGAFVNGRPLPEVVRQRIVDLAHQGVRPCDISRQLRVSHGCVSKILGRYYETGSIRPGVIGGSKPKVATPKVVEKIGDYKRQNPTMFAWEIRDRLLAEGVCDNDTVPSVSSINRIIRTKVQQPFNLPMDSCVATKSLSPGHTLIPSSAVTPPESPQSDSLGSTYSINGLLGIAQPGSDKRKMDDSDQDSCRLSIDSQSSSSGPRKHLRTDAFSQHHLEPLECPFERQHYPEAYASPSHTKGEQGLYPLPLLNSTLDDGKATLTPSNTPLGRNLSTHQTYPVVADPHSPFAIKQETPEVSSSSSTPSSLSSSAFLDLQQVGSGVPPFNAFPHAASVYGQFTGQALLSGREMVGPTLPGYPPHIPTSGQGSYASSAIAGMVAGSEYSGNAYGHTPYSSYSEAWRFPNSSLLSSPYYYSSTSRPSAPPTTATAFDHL
Luciferin 4-monooxygenase, sequence (P08659 whole entry): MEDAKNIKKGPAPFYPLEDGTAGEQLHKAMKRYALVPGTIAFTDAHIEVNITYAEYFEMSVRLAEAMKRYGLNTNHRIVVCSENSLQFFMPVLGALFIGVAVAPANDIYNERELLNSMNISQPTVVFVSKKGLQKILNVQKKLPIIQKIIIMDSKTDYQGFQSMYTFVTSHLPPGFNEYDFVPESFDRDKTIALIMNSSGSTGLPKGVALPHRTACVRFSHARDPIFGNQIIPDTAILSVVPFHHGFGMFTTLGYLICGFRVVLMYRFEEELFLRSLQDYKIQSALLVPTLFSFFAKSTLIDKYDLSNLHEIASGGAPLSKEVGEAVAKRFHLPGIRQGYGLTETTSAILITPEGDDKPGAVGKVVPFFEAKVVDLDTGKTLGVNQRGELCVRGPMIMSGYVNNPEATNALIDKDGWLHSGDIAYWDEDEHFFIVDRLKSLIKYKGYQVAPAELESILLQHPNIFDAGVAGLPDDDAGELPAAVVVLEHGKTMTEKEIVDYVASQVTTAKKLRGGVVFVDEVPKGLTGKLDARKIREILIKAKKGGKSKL

COc1ccc(C(=O)ON=C(N)c2ccccn2)cc1
EC50 [1]: 1.47 µM (active) | AC50 [2]: 12.6 µM (active) | AC50 [3]: 8.88 µM (active)

CC(C)OC(=O)/C(=C/c1ccc2c(c1)c1ccccc1n2C)NC(=O)c1ccccc1
IC50 [4]: 19.1 µM (not active) | IC50 [5]: 14.7 µM (not active)

Cc1ccsc1C(=O)OCC(=O)NCCC1=CCCCC1
EC50 [6]: > 91.1 µM (inactive) | EC50 [7]: > 91.1 µM (inactive)

Cc1cccc(-n2ccnc2SCC(=O)N2CCCc3ccccc32)c1C
IC50 [4]: 4.08 µM (active) | IC50 [5]: 1.56 µM (active)

CCn1cnc2sc(C(=O)Nc3ccccc3OC)c(C)c2c1=O
IC50 [8]: 4.9 µM (active) | IC50 [9]: 7.11 µM (active)

Cc1ccc2nc(-c3cc(-c4ccccc4)no3)cn2c1
EC50 [10]: 7.48 µM (inconclusive) | EC50 [11]: 3.61 µM (active) | EC50 [12]: 3.08 µM (active) | IC50 [8]: > 39.8 µM (not active) | IC50 [9]: > 39.8 µM (not active)

COc1ccc(-c2cc(C#N)nc(Cl)n2)cc1
AC50 [13]: 79.8 µM (active) | EC50 [14]: 37.2 µM (active) | EC50 [6]: > 91.2 µM (inactive) | EC50 [7]: > 91.2 µM (inactive)

Oc1ccc(-c2nc3ccccn3c2NCc2ccc3c(c2)OCO3)cc1
AC50 [15]: 27.7 µM (active)

O=C(CCc1nc(-c2ccccc2)c(-c2ccccc2)o1)OCc1ccc(Br)cc1
IC50 [4]: 8.36 µM (active) | IC50 [5]: 15.1 µM (not active)

O=C(Nc1cccc(-n2cnnn2)c1)c1cc2ccccc2o1
IC50 [8]: 5.91 µM (active) | IC50 [9]: 6.55 µM (active)

CN1CCN(C(=O)c2ccc3c(c2)NC(=O)/C(=C/c2ccccc2)S3)CC1
AC50 [2]: 29.7 µM (active)

CCOC(=O)c1cc2c(O)nccc2nc1C
AC50 [15]: 10.3 µM (active)

Cc1nn(-c2ncccn2)c2c1C(=O)CC(C)(C)C2Br (stereo unspecified)
AC50 [2]: 69.7 µM (active)

Cc1ccccc1-c1ccc2c(c1)O[C@H](CN(C)C(=O)Nc1ccc(C(F)(F)F)cc1)[C@@H](C)CN([C@H](C)CO)S2(=O)=O
AC50 [3]: 8 µM (active) | AC50 [16]: 41.1 µM (active) | AC50 [17]: > 70 µM (inactive)

C[C@@H]1CCCCO[C@H](CN(C)Cc2ccc(C(F)(F)F)cc2)[C@H](C)CN([C@@H](C)CO)C(=O)c2cc(NS(=O)(=O)c3ccc(Cl)cc3)ccc2O1
AC50 [3]: 5.9 µM (active) | AC50 [16]: 16.4 µM (active) | AC50 [17]: > 70 µM (inactive)

Cc1ccc(S(=O)(=O)N(C)C[C@H]2OCCCC[C@H](C)Oc3ccc(NS(=O)(=O)c4ccc(Cl)cc4)cc3C(=O)N([C@@H](C)CO)C[C@@H]2C)cc1
AC50 [3]: 6.7 µM (active) | AC50 [17]: > 70 µM (inactive)

COc1ccc2c3c([nH]c2c1)[C@@H](CO)N(Cc1cccc(F)c1)CC31CCN(Cc2ccccn2)CC1
AC50 [18]: 1.32 µM (active) | AC50 [19]: 48.6 µM (active) | AC50 [20]: 1.21 µM (active) | AC50 [21]: 1.52 µM (active) | AC50 [22]: 1.1 µM (active)

COc1ccc(S(=O)(=O)N(C)C[C@H]2Oc3c(NC(=O)Nc4cccc5ccccc45)cccc3C(=O)N([C@@H](C)CO)C[C@H]2C)cc1
AC50 [18]: 0.3 µM (active) | AC50 [19]: > 100 µM (inactive) | AC50 [20]: 0.489 µM (active) | AC50 [21]: 0.327 µM (active) | AC50 [22]: 0.277 µM (active)

COc1cccc(NC(=O)N2[C@@H](CO)[C@@H](c3ccccc3)[C@@H]2CNCC(C)C)c1
AC50 [18]: 1.08 µM (active) | AC50 [19]: 67.9 µM (active) | AC50 [20]: 1.78 µM (active) | AC50 [21]: 1.05 µM (active) | AC50 [22]: 1.4 µM (active)
